Source: PubChem BioAssay (NCI)
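Briefly, cells in 96-well plates were exposed to five compound concentrations for 48 h, and endpoints were estimated by linear interpolation. Abbreviation: GI50, concentration required for 50% inhibition of growth. TGI is the concentration that stops growth completely.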

Experiments:
Test in all cases: NCI tumour cell line growth inhibition, 48 h
HOP-18 NSCLC = tested on: HOP-18 NSCLC
SK-OV-3 ovarian = tested on: SK-OV-3 ovarian
LOX IMVI melanoma = tested on: LOX IMVI melanoma
MALME-3M melanoma = tested on: MALME-3M melanoma
NCI-H522 lung = tested on: NCI-H522 lung
SN12C renal = tested on: SN12C renal
RXF 393 renal = tested on: RXF 393 renal
OVCAR-8 ovarian = tested on: OVCAR-8 ovarian
UACC-62 melanoma = tested on: UACC-62 melanoma
SR leukemia = tested on: SR leukemia
DMS 114 small cell lung = tested on: DMS 114 small cell lung
UACC-257 melanoma = tested on: UACC-257 melanoma
TK-10 renal = tested on: TK-10 renal
NCI-H460 lung = tested on: NCI-H460 lung
HOP-62 NSCLC = tested on: HOP-62 NSCLC
CCRF-CEM leukemia = tested on: CCRF-CEM leukemia
SF-295 CNS = tested on: SF-295 CNS
UO-31 renal = tested on: UO-31 renal
U251 CNS = tested on: U251 CNS
RXF-631 renal = tested on: RXF-631 renal
SW-620 colon = tested on: SW-620 colon
ACHN renal = tested on: ACHN renal
HT29 colon = tested on: HT29 colon
HCT-15 colon = tested on: HCT-15 colon
OVCAR-5 ovarian = tested on: OVCAR-5 ovarian
RPMI-8226 leukemia = tested on: RPMI-8226 leukemia
A549 NSCLC = tested on: A549 NSCLC
SK-MEL-28 melanoma = tested on: SK-MEL-28 melanoma
SNB-78 CNS = tested on: SNB-78 CNS
A498 renal = tested on: A498 renal
SF-268 CNS = tested on: SF-268 CNS
SF-539 CNS = tested on: SF-539 CNS
KM20L2 colon = tested on: KM20L2 colon
DLD-1 colon = tested on: DLD-1 colon
CAKI-1 renal = tested on: CAKI-1 renal
HL-60(TB) leukemia = tested on: HL-60(TB) leukemia
MOLT-4 leukemia = tested on: MOLT-4 leukemia
HCC-2998 colon = tested on: HCC-2998 colon
EKVX NSCLC = tested on: EKVX NSCLC
OVCAR-3 ovarian = tested on: OVCAR-3 ovarian
786-0 renal = tested on: 786-0 renal
IGROV1 ovarian = tested on: IGROV1 ovarian
SNB-75 CNS = tested on: SNB-75 CNS
COLO 205 colon = tested on: COLO 205 colon
HCT-116 colon = tested on: HCT-116 colon
LXFL 529 NSCLC = tested on: LXFL 529 NSCLC
SNB-19 CNS = tested on: SNB-19 CNS
M14 melanoma = tested on: M14 melanoma
NCI-H226 lung = tested on: NCI-H226 lung
HOP-92 NSCLC = tested on: HOP-92 NSCLC
M19-MEL melanoma = tested on: M19-MEL melanoma
SK-MEL-2 melanoma = tested on: SK-MEL-2 melanoma
XF 498 CNS = tested on: XF 498 CNS
KM12 colon = tested on: KM12 colon
K-562 leukemia = tested on: K-562 leukemia
NCI-H23 lung = tested on: NCI-H23 lung
SK-MEL-5 melanoma = tested on: SK-MEL-5 melanoma
DMS 273 small cell lung = tested on: DMS 273 small cell lung
OVCAR-4 ovarian = tested on: OVCAR-4 ovarian

`CCC[CH2][Ge]([CH2]CCC)([CH2]CCC)[O]C(=O)C(OC)c1ccccc1` (configuration not stated) gave a GI50 (HOP-18 NSCLC) greater than 100 µM, a TGI (HOP-18 NSCLC) greater than 100 µM and a GI50 (SK-OV-3 ovarian) greater than 94.2 µM. It also gave a TGI (SK-OV-3 ovarian) greater than 100 µM, a GI50 (LOX IMVI melanoma) of 14.3 µM and a TGI (LOX IMVI melanoma) of 35.1 µM. For the same molecule, the GI50 (MALME-3M melanoma) was 26.7 µM, the TGI (MALME-3M melanoma) was greater than 100 µM and the GI50 (NCI-H522 lung) was 16.3 µM. It also gave a TGI (NCI-H522 lung) greater than 74.9 µM, a GI50 (SN12C renal) of 46.4 µM and a TGI (SN12C renal) greater than 100 µM. The GI50 (RXF 393 renal) was 6.9 µM, the TGI (RXF 393 renal) was 27.8 µM and the GI50 (OVCAR-8 ovarian) was 70.2 µM. It also gave a TGI (OVCAR-8 ovarian) greater than 100 µM, a GI50 (UACC-62 melanoma) of 30.7 µM and a TGI (UACC-62 melanoma) greater than 100 µM. It also gave a TGI (SR leukemia) greater than 55.4 µM, a GI50 (DMS 114 small cell lung) of 7.56 µM and a TGI (DMS 114 small cell lung) of 34.4 µM. The GI50 (UACC-257 melanoma) was 16.7 µM, the TGI (UACC-257 melanoma) was greater than 100 µM and the GI50 (TK-10 renal) was greater than 91.9 µM. The TGI (TK-10 renal) was greater than 100 µM, the GI50 (NCI-H460 lung) was 22.1 µM and the TGI (NCI-H460 lung) was greater than 100 µM. It also gave a GI50 (HOP-62 NSCLC) of 20.6 µM, a TGI (HOP-62 NSCLC) greater than 70.6 µM and a GI50 (CCRF-CEM leukemia) of 2.09 µM. For the same molecule, the TGI (CCRF-CEM leukemia) was greater than 100 µM, the GI50 (SF-295 CNS) was 18.3 µM and the TGI (SF-295 CNS) was greater than 100 µM. It also gave a GI50 (UO-31 renal) greater than 41.7 µM, a TGI (UO-31 renal) greater than 100 µM and a GI50 (U251 CNS) of 31.4 µM. The TGI (U251 CNS) was greater than 100 µM, the GI50 (RXF-631 renal) was 29.4 µM and the TGI (RXF-631 renal) was greater than 100 µM. The GI50 (SW-620 colon) was 47.3 µM, the TGI (SW-620 colon) was greater than 100 µM and the GI50 (ACHN renal) was 25.2 µM. It also gave a TGI (ACHN renal) greater than 75.2 µM, a GI50 (HT29 colon) of 25.4 µM and a TGI (HT29 colon) greater than 100 µM. For the same molecule, the GI50 (HCT-15 colon) was 9.52 µM, the TGI (HCT-15 colon) was 32.4 µM and the GI50 (OVCAR-5 ovarian) was 31.5 µM. The TGI (OVCAR-5 ovarian) was greater than 78.3 µM, the GI50 (RPMI-8226 leukemia) was 0.255 µM and the TGI (RPMI-8226 leukemia) was 14.6 µM. For the same molecule, the GI50 (A549 NSCLC) was greater than 36.9 µM, the TGI (A549 NSCLC) was greater than 100 µM and the GI50 (SK-MEL-28 melanoma) was 52.3 µM. The TGI (SK-MEL-28 melanoma) was greater than 100 µM, the GI50 (SNB-78 CNS) was greater than 100 µM and the TGI (SNB-78 CNS) was greater than 100 µM. It also gave a GI50 (A498 renal) of 46.8 µM, a TGI (A498 renal) greater than 100 µM and a GI50 (SF-268 CNS) of 40.9 µM. The TGI (SF-268 CNS) was greater than 100 µM, the GI50 (SF-539 CNS) was 32.1 µM and the TGI (SF-539 CNS) was greater than 100 µM. For the same molecule, the GI50 (KM20L2 colon) was 17.2 µM, the TGI (KM20L2 colon) was greater than 100 µM and the GI50 (DLD-1 colon) was 23.7 µM. For the same molecule, the TGI (DLD-1 colon) was greater than 100 µM, the GI50 (CAKI-1 renal) was 70.1 µM and the TGI (CAKI-1 renal) was greater than 100 µM. It also gave a GI50 (HL-60(TB) leukemia) of 2.96 µM, a TGI (HL-60(TB) leukemia) greater than 26.1 µM and a GI50 (MOLT-4 leukemia) of 3.74 µM. For the same molecule, the TGI (MOLT-4 leukemia) was greater than 60.6 µM, the GI50 (HCC-2998 colon) was 23.2 µM and the TGI (HCC-2998 colon) was 59 µM. The GI50 (EKVX NSCLC) was 16.4 µM, the TGI (EKVX NSCLC) was greater than 100 µM and the GI50 (OVCAR-3 ovarian) was 11.1 µM. The TGI (OVCAR-3 ovarian) was greater than 70.2 µM, the GI50 (786-0 renal) was 47.2 µM and the TGI (786-0 renal) was greater than 100 µM. The GI50 (IGROV1 ovarian) was greater than 74.7 µM, the TGI (IGROV1 ovarian) was greater than 100 µM and the GI50 (SNB-75 CNS) was 41.1 µM. The TGI (SNB-75 CNS) was greater than 100 µM, the GI50 (COLO 205 colon) was 45.8 µM and the TGI (COLO 205 colon) was greater than 100 µM. The GI50 (HCT-116 colon) was 16.5 µM, the TGI (HCT-116 colon) was greater than 100 µM and the GI50 (LXFL 529 NSCLC) was 15.6 µM. The TGI (LXFL 529 NSCLC) was greater than 100 µM, the GI50 (SNB-19 CNS) was greater than 93.9 µM and the TGI (SNB-19 CNS) was greater than 100 µM. It also gave a GI50 (M14 melanoma) of 16.7 µM, a TGI (M14 melanoma) of 49.8 µM and a GI50 (NCI-H226 lung) of 92.7 µM. For the same molecule, the TGI (NCI-H226 lung) was greater than 100 µM, the GI50 (HOP-92 NSCLC) was 9.53 µM and the TGI (HOP-92 NSCLC) was 98.3 µM. It also gave a GI50 (M19-MEL melanoma) of 33.9 µM, a TGI (M19-MEL melanoma) greater than 100 µM and a GI50 (SK-MEL-2 melanoma) of 42.4 µM. For the same molecule, the TGI (SK-MEL-2 melanoma) was greater than 100 µM, the GI50 (XF 498 CNS) was 41.1 µM and the TGI (XF 498 CNS) was greater than 100 µM. It also gave a GI50 (KM12 colon) of 26.4 µM, a TGI (KM12 colon) greater than 100 µM and a GI50 (K-562 leukemia) of 2.07 µM. For the same molecule, the TGI (K-562 leukemia) was greater than 100 µM, the GI50 (NCI-H23 lung) was 6.86 µM and the TGI (NCI-H23 lung) was 51.8 µM. It also gave a GI50 (SK-MEL-5 melanoma) of 17.5 µM, a TGI (SK-MEL-5 melanoma) greater than 63.1 µM and a GI50 (DMS 273 small cell lung) of 17.6 µM. It also gave a TGI (DMS 273 small cell lung) greater than 75.9 µM, a GI50 (OVCAR-4 ovarian) of 15.3 µM and a TGI (OVCAR-4 ovarian) greater than 100 µM.
